How the values were obtained:
Format in all cases: biochemical
[1] = biological target: PKC theta kinase (Homo sapiens, UniProt Q04759); experiment: PKC theta kinase inhibition, coupled-enzyme (NADH absorbance) assay, Ki; settings: 240 μM ATP, 18 nM PKC theta kinase, 30° C.
Procedure, shortened: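 Coupled-enzyme kinase assay following NADH absorbance at 340 nm, in 100 mM HEPES pH 7.5, 10 mM MgCl2, 25 mM NaCl, 0.1 mM EDTA, 0.01% Brij. Compound in DMSO preincubated with enzyme 10 min at 30 °C. Ki from initial rates by non-linear regression.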

[2] = biological target: PKC alpha kinase (Homo sapiens, UniProt P17252); experiment: PKC alpha kinase inhibition, coupled-enzyme (NADH absorbance) assay, Ki; settings: 130 μM ATP, 4.5 nM PKC alpha kinase, 30° C.
Procedure, shortened: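 Enzyme in 100 mM HEPES pH 7.5, 10 mM MgCl2, 100 μM CaCl2, 0.01% Brij, preincubated with compound 10 min at 30 °C. Reaction started with 130 μM ATP (final); NADH consumption followed at 340 nm for 15 min at 30 °C. Ki fitted by non-linear regression of initial rates.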

[3] = biological target: PKC delta kinase (Homo sapiens, UniProt Q05655); experiment: PKC delta kinase inhibition, coupled-enzyme (NADH absorbance) assay, Ki; settings: 150 μM ATP, 46 nM PKC delta kinase, 30° C.; read-out: Ki PKC delta
PKC delta kinase, sequence (Q05655 whole entry): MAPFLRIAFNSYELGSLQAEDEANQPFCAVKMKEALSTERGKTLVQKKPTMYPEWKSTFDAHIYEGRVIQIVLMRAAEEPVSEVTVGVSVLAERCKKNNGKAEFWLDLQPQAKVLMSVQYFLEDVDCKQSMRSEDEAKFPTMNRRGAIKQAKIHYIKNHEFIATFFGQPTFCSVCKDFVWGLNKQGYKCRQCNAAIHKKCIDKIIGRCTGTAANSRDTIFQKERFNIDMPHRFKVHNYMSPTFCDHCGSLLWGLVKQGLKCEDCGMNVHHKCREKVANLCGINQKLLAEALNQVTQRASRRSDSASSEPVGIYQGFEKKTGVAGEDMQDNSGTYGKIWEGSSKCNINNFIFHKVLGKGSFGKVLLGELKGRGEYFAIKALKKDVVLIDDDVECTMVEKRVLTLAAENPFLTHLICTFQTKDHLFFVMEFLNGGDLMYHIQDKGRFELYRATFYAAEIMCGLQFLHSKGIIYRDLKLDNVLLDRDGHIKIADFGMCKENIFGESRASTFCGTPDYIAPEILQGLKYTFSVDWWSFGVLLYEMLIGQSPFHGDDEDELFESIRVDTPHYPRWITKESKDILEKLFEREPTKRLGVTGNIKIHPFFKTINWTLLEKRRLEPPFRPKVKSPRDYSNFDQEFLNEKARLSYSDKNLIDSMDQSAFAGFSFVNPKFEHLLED
Procedure, shortened: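 PKC delta in 100 mM HEPES pH 7.5, 10 mM MgCl2, 25 mM NaCl, 0.1 mM EDTA, 0.01% Brij, equilibrated 10 min at 30° C with compound from DMSO stock. Started with ATP at 150 μM final; NADH-coupled absorbance at 340 nm followed 15 min at 30° C. Ki from initial rates by non-linear regression.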

PKC theta kinase, sequence (Q04759 whole entry): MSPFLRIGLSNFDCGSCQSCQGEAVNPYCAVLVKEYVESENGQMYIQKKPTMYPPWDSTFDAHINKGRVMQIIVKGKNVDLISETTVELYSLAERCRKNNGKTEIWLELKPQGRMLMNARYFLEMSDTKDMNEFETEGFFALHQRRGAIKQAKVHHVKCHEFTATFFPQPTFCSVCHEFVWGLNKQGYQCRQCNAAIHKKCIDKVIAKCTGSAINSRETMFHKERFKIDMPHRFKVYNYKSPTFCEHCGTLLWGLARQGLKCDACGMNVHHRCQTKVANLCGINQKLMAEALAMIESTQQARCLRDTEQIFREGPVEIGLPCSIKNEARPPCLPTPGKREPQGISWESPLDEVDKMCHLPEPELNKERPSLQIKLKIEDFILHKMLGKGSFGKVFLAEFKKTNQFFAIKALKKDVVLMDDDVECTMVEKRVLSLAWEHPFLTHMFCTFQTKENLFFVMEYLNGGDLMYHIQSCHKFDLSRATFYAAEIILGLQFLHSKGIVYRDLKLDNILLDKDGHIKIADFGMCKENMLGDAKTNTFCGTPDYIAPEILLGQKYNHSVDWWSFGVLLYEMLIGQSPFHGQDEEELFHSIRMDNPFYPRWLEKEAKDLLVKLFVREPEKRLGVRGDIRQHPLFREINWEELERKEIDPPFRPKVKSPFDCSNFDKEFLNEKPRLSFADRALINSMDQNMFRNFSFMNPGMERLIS

Row | SMILES | Ki [1] | Ki [2] | Ki [3]
1 | NCC1CCCN(c2cc(C(F)(F)F)cc(-c3n[nH]c4ncccc34)n2)C1 (stereo not drawn) [Compound 432] | < 0.05 µM | > 1.25 µM | > 1.25 µM
2 | CCCC1(CN)CN(c2ccc(C(F)(F)F)c(-c3n[nH]c4ncccc34)n2)CCO1 (stereo not drawn) [Compound 404] | < 0.5 µM | < 2.8 µM | < 0.5 µM
3 | NCC1CN(c2ccc(F)c(-c3n[nH]c4ncccc34)n2)C1 [Compound 387] | < 0.5 µM | > 1.25 µM | > 1.25 µM
4 | CCC[C@H]1CN(c2ccc(F)c(-c3n[nH]c4ncccc34)n2)C[C@H]1N [Compound 338] | < 0.5 µM | > 1.25 µM | > 1.25 µM
5 | CC(C)C[C@H]1CC(O)(c2cccc(-c3n[nH]c4ncccc34)n2)CCN1 (stereo partly drawn) [Compound 111] | > 0.7 µM | > 1.25 µM | > 1.25 µM
6 | Cc1cc([C@@H]2CN(c3ccc(F)c(-c4n[nH]c5ncccc45)n3)CCN2)[nH]n1 [Compound 260] | < 0.5 µM | > 1.25 µM | > 1.25 µM
7 | Fc1ccc(C2CCNCC2)nc1-c1n[nH]c2ncccc12 [Compound 440] | < 0.5 µM | > 1.25 µM | > 1.25 µM
8 | NCC1CN(c2ccc(F)c(-c3n[nH]c4ncccc34)n2)CCC1O (stereo not drawn) [Compound 296] | < 0.5 µM | > 1.25 µM | < 2.8 µM
9 | CCC[C@H]1CN(c2cccc(-c3n[nH]c4ncccc34)n2)C[C@H](CC(C)C)N1 [Compound 14] | < 0.5 µM | > 1.25 µM | < 2.8 µM
10 | CC(C)C[C@@H]1CC(F)(c2cccc(-c3n[nH]c4ncccc34)n2)CCN1 (stereo partly drawn) [Compound 99] | < 0.5 µM | > 1.25 µM | > 2 µM
11 | Fc1ccc(N2CCc3[nH]ncc3C2)nc1-c1n[nH]c2ncccc12 [Compound 298] | > 0.7 µM | > 1.25 µM | > 1.25 µM
12 | CCC(CC)C(N)C1CCCN(c2ccc(F)c(-c3n[nH]c4ncccc34)n2)C1 (stereo not drawn) [Compound 391] | < 0.05 µM | > 1.25 µM | < 2.8 µM
13 | NC1CCN(c2ccc(C(F)(F)F)c(-c3n[nH]c4ncccc34)n2)CC12CCCC2 (stereo not drawn) [Compound 464] | < 0.05 µM | < 0.5 µM | < 0.5 µM
14 | CCC1(CC(C)C)CN(c2ccc(C(F)(F)F)c(-c3n[nH]c4ncccc34)n2)CCC1N (stereo not drawn) [Compound 434] | < 0.05 µM | < 0.5 µM | < 0.5 µM
15 | CC(C)(O)[C@H]1CN(c2cccc(-c3n[nH]c4ncccc34)n2)CCN1 [Compound 136] | < 0.05 µM | > 1.25 µM | < 0.5 µM
16 | CCOC(=O)N1CCN(c2ccc(F)c(-c3n[nH]c4ncccc34)n2)CC1C(C)(O)C(C)C (stereo not drawn) [Compound 418] | > 0.7 µM | > 1.25 µM | > 1.25 µM
17 | CC(C)C[C@H]1CN(c2cccc(-c3n[nH]c4ncccc34)n2)CC[C@H]1O [Compound 144] | < 0.05 µM | > 1.25 µM | < 2.8 µM

Row | SMILES | Ki [1] | Ki [2] | Ki [3]
18 | CC(C)C[C@H]1CC(F)(c2cccc(-c3n[nH]c4ncccc34)n2)CCN1 (stereo partly drawn) [Compound 146] | < 0.5 µM | > 1.25 µM | < 2.8 µM
19 | CC(C)C(C)(O)C1CN(c2cncc(-c3n[nH]c4ncccc34)n2)CCN1 (stereo not drawn) [Compound 426] | < 0.05 µM | < 2.8 µM | < 0.5 µM
20 | CCC(C)(C)C(N)C1CCCN(c2ccc(F)c(-c3n[nH]c4ncccc34)n2)C1 (stereo not drawn) [Compound 378] | < 0.05 µM | < 2.8 µM | < 0.5 µM
21 | CC(C)CC1(C)CN(c2cccc(-c3n[nH]c4ncccc34)n2)CCN1 (stereo not drawn) [Compound 89] | < 0.05 µM | < 0.5 µM | < 0.05 µM
22 | CC(C)C[C@H]1CN(c2ccc(-c3ccccc3)c(-c3n[nH]c4ncccc34)n2)CCN1 [Compound 49] | < 0.5 µM | > 1.25 µM | < 2.8 µM
23 | Fc1ccc(N2CCCCC2)nc1-c1n[nH]c2ncccc12 [Compound 266] | > 0.7 µM | > 1.25 µM | > 1.25 µM
24 | CCC[C@H]1CN(c2ccc(F)c(-c3n[nH]c4ncccc34)n2)C[C@@H]1N [Compound 339] | < 0.5 µM | > 1.25 µM | > 1.25 µM
25 | N#CC1(c2cccc(-c3n[nH]c4ncccc34)n2)CCNCC1 [Compound 234] | < 0.05 µM | < 0.5 µM | < 0.5 µM
26 | NC1(C2CCCN(c3ccc(F)c(-c4n[nH]c5ncccc45)n3)C2)CCC1 (stereo not drawn) [Compound 324] | < 0.05 µM | < 2.8 µM | < 0.05 µM
27 | CC(C)C[C@H]1CN(c2ccc(F)c(-c3n[nH]c4ncccc34)n2)C[C@H](C)N1 [Compound 182] | > 0.7 µM | > 1.25 µM | > 1.25 µM
28 | CCC[C@@H]1CN(c2cccc(-c3n[nH]c4ncccc34)n2)C[C@H](CC(C)C)N1 [Compound 15] | < 0.05 µM | < 2.8 µM | < 0.5 µM
29 | C1=C(c2cccc(-c3n[nH]c4ncccc34)n2)CCNC1 [Compound 157] | < 0.5 µM | > 1.25 µM | > 1.25 µM
30 | CC(C)CC(N)C1CCCN(c2ccc(F)c(-c3n[nH]c4ncccc34)n2)C1 (stereo not drawn) [Compound 299] | < 0.05 µM | > 1.25 µM | < 2.8 µM
31 | CC(O)(c1ccccc1)C1CN(c2ccc(F)c(-c3n[nH]c4ncccc34)n2)CCN1 (stereo not drawn) [Compound 322] | < 0.5 µM | > 1.25 µM | > 1.25 µM
32 | Fc1ccc(N2CCC(C(F)(F)F)CC2)nc1-c1n[nH]c2ncccc12 [Compound 268] | > 0.7 µM | > 1.25 µM | > 1.25 µM
33 | CC(C)CC1(C)C=CCN(c2ccc(C(F)(F)F)c(-c3n[nH]c4ncccc34)n2)C1 (stereo not drawn) [Compound 396] | > 0.7 µM | > 1.25 µM | > 1.25 µM
34 | CC(C)CC1(CN)CCN(c2ccc(F)c(-c3n[nH]c4ncccc34)n2)CC1 [Compound 467] | < 0.5 µM | > 1.25 µM | > 1.25 µM

Second part, the compound after the results:

Row | Ki [1] | Ki [2] | Ki [3] | SMILES
35 | < 0.5 µM | > 1.25 µM | > 1.25 µM | CC(C)C[C@@]1(F)CN(c2ccc(C(F)(F)F)c(-c3n[nH]c4ncccc34)n2)CC[C@H]1O [Compound 198]
36 | > 0.7 µM | > 1.25 µM | > 1.25 µM | CCC[C@H]1CN(c2ccc(C(F)(F)F)c(-c3n[nH]c4ncccc34)n2)C[C@H]1N [Compound 340]
37 | > 0.7 µM | > 1.25 µM | > 1.25 µM | FC(F)(F)c1ccc(C2CCNCC2)nc1-c1n[nH]c2ncccc12 [Compound 431]
38 | < 0.5 µM | > 1.25 µM | > 1.25 µM | Cc1ccc(C2CN(c3ccc(C(F)(F)F)c(-c4n[nH]c5ncccc45)n3)CCN2)cc1 (stereo not drawn) [Compound 133]
39 | > 0.7 µM | > 1.25 µM | > 1.25 µM | CNC1CCN(c2ccc(C(F)(F)F)c(-c3n[nH]c4ncccc34)n2)CC1 [Compound 359]
40 | > 0.7 µM | > 1.25 µM | > 1.25 µM | NC[C@H]1CCN(c2ccc(C(F)(F)F)c(-c3n[nH]c4ncccc34)n2)C1 [Compound 354]
41 | < 0.05 µM | < 2.8 µM | < 0.5 µM | CCC(C)(O)C1CN(c2ccc(F)c(-c3n[nH]c4ncccc34)n2)CCN1 (stereo not drawn) [Compound 241]
42 | < 0.5 µM | > 1.25 µM | > 1.25 µM | CC(C)C(F)(F)C1CN(c2ccc(C(F)(F)F)c(-c3n[nH]c4ncccc34)n2)CCN1 (stereo not drawn) [Compound 150]
43 | < 0.05 µM | > 1.25 µM | < 0.5 µM | CC(C)(C)C1CN(c2ccc(F)c(-c3n[nH]c4ncccc34)n2)CCN1 (stereo not drawn) [Compound 197]
44 | < 0.5 µM | > 1.25 µM | > 1.25 µM | COC(C)(C)C1CN(c2ccc(F)c(-c3n[nH]c4ncccc34)n2)CCN1 (stereo not drawn) [Compound 190]
45 | > 0.7 µM | > 1.25 µM | > 1.25 µM | CCNC(=O)CC1CN(c2ccc(C(F)(F)F)c(-c3n[nH]c4ncccc34)n2)CCN1 (stereo not drawn) [Compound 212]
46 | < 0.5 µM | > 1.25 µM | < 0.5 µM | CC(C)C(N)[C@H]1CCCN(c2ccc(C(F)(F)F)c(-c3n[nH]c4ncccc34)n2)C1 (stereo partly drawn) [Compound 265]
47 | < 0.05 µM | < 0.5 µM | < 0.5 µM | CC(C)C[C@]1(O)CN(c2ccc(C(F)(F)F)c(-c3n[nH]c4ncccc34)n2)CC[C@H]1N [Compound 218]
48 | > 0.7 µM | > 1.25 µM | > 1.25 µM | NCC1CN(c2ccc(C(F)(F)F)c(-c3n[nH]c4ncccc34)n2)C1 [Compound 363]
49 | < 0.5 µM | > 1.25 µM | < 2.8 µM | C[C@H]1CN(c2ccc(C(F)(F)F)c(-c3n[nH]c4ncccc34)n2)CCN1 [Compound 116]
50 | < 0.05 µM | > 1.25 µM | < 0.5 µM | CC(C)(C)C[C@H]1CN(c2ccc(F)c(-c3n[nH]c4ncccc34)n2)CCN1 [Compound 142]
51 | > 0.7 µM | > 1.25 µM | > 1.25 µM | CN(C)C(=O)CC1CN(c2ccc(C(F)(F)F)c(-c3n[nH]c4ncccc34)n2)CCN1 (stereo not drawn) [Compound 211]
52 | > 0.7 µM | > 1.25 µM | > 1.25 µM | CC(C)CC1(C#N)CCN(c2ccc(C(F)(F)F)c(-c3n[nH]c4ncccc34)n2)CC1 [Compound 446]
53 | > 0.7 µM | > 1.25 µM | > 1.25 µM | O=C1CN(c2ccc(C(F)(F)F)c(-c3n[nH]c4ncccc34)n2)CCN1 [Compound 194]

— patent publication US9193722B2, “Tri-cyclic pyrazolopyridine kinase inhibitors” (Vertex Pharmaceuticals Incorporated, priority 2008, dated 2015)
